Reference: patent publication US9533985B2, “Sulfonamide derivative and medicinal use thereof” (EA Pharma Co., Ltd., priority 2012, dated 2017)

How the values were obtained:
Type in all cases: cell-based
[1] = target: T1, α4β7 integrin (Homo sapiens (Human), UniProt P13612+P26010); experiment: MAdCAM-1/α4β7 integrin binding inhibitory activity evaluation test (RPMI-8866 cell adhesion to MAdCAM-1/Fc); conditions: for Selectivity: IC50 in VCAM-1/α4β1 test divided by IC50 in MAdCAM-1/α4β7 test; for IC50: RPMI-8866 cells binding to recombinant mouse MAdCAM-1/Fc, no serum
Description: The ability of test substances to inhibit the binding of a human B cell line, RPMI-8866, which is known to express α4β7 integrin, to MAdCAM-1 was measured. To 96-well microtiter plates, recombinant mouse MAdCAM-1/Fc (R&D systems) solution (0.75 μg/mL) diluted with buffer A (carbonate buffer solution, pH 9.6) was added at 50 μL/well, followed by incubation at 4° C. overnight. After washing once with PBS, Block Ace (Snow Brand Milk Products Company, Limited) was added at 150 μL/well, followed by incubation at room temperature for 2 hours. After removal, washing was conducted once with PBS. 100 μL of each test substance diluted with binding buffer (DMEM containing 40 mM HEPES, 0.2% BSA, and 4 mM MnCl2) to various concentrations and 100 μL of RPMI-8866 cells (2×10^6 cell/mL) were added to the plates coated with MAdCAM-1/Fc (5×10^5 cells/well), followed by incubation at 30° C. for 15 minutes to 60 minutes. After the cells were bound to each well, unbound cells were removed by washing with PBS. To the plates, buffer C (PBS containing 1.5% Triton X-100) was added at 50 μL/well to lyse the bound RPMI-8866 cells. To 30 μL of the cell lysate, 30 μL of Substrate Buffer (Promega, CytoTox 96 Non-Radioactive Cytotoxicity Assay) was added, and the reaction was allowed to proceed at room temperature in a dark place for 30 minutes. To each well, 30 μL of Stop Solution (Promega, CytoTox 96 Non-Radioactive Cytotoxicity Assay) was added, and the absorbance at 490 nm was measured by using a plate reader. Here, by the obtained absorbance, the activity of the lactate dehydrogenase (LDH) dissolved into the supernatant of each well was detected. In other words, the absorbance was proportional to the number of the RPMI-8866 cells bound to MAdCAM-1 and remaining on the plate. The test was duplicated. The binding ratios of the cells at various concentrations were determined, with the absorbance of a well containing no test substance taken as 100%. Then, the concentration IC50, at which 50% binding inhibition was achieved, was calculated. […] Note that the selectivity in the table was determined by dividing the IC50 value in VCAM-1/α4β1 Integrin Binding Inhibitory Activity Evaluation Test by the IC50 value in the MAdCAM-1/α4β7 integrin binding inhibitory activity evaluation test.

[2] = target: T1, α4β7 integrin; experiment: MAdCAM-1/α4β7 integrin binding inhibitory activity evaluation test in the presence of serum (1); conditions: RPMI-8866 cells binding to mouse MAdCAM-1/Fc, human serum at final concentration of 50%; read-out: α4β7 with serum added, IC50
Description: The ability of test substances to inhibit the binding of a human B cell line, RPMI-8866, which is known to express α4β7 integrin, to MAdCAM-1 was measured. To 96-well microtiter plates, recombinant mouse MAdCAM-1/Fc (R&D systems) solution (1 μg/mL) diluted with buffer A (carbonate buffer, pH 9.6) was added at 50 μL/well, followed by incubation at 4° C. overnight. After washing once with PBS, Block Ace (Snow Brand Milk Products Company, Limited) was added at 150 μL/well, followed by incubation at room temperature for 2 hours. After removal, washing was conducted once with PBS. 100 μL of each test substance diluted with a binding buffer (DMEM containing 40 mM HEPES, 0.2% BSA, and 4 mM MnCl2) to various concentrations and 100 μL of RPMI-8866 cells (2×10^6 cell/mL) were added to plates coated with MAdCAM-1/Fc (5×10^5 cells/well) with human serum being contained at a final concentration of 50%, followed by incubation at 30° C. for 15 minutes to 60 minutes. After the cells were bound to each well, unbound cells were removed by washing with PBS. To the plates, buffer C (PBS containing 1.5% Triton X-100) was added at 50 μL/well to lyse the bound RPMI-8866 cells. To 30 μL of the cell lysate, 30 μL of Substrate Buffer (Promega, CytoTox 96 Non-Radioactive Cytotoxicity Assay) was added, and the reaction was allowed to proceed at room temperature in a dark place for 30 minutes. To each well, 30 μL of Stop Solution (Promega, CytoTox 96 Non-Radioactive Cytotoxicity Assay) was added, and the absorbance at 490 nm was measured by using a plate reader. Here, by the obtained absorbance, the activity of the lactate dehydrogenase (LDH) dissolved into the supernatant of each well was detected. In other words, the absorbance was proportional to the number of the RPMI-8866 cells bound to MAdCAM-1 and remaining on the plate. The test was duplicated. The binding ratios of the cells at various concentrations were determined, with the absorbance of a well containing no test substance taken as 100%. Then, the concentration IC50, at which 50% binding inhibition was achieved, was calculated.

[3] = target: α4β1 integrin (Homo sapiens (Human), UniProt P05556+P13612); experiment: VCAM-1/α4β1 integrin binding inhibitory activity evaluation test (Jurkat cell adhesion to VCAM-1/Fc); conditions: Jurkat cells binding to recombinant human VCAM-1/Fc
Description: The ability of test substances to inhibit the binding of a human T-cell line, Jurkat, which is known to express α4β1 integrin, to VCAM-1 was measured. To 96-well microtiter plates, recombinant human VCAM-1/Fc (R&D systems) solution (1 μg/mL) diluted with buffer A (carbonate buffer, pH 9.6) was added at 50 μL/well, followed by incubation at 4° C. overnight. After washing once with PBS, Block Ace (Snow Brand Milk Products Company, Limited) was added at 150 μL/well, followed by incubation at room temperature for 2 hours. After removal, washing was conducted once with PBS. 100 μL of each test substance diluted with a binding buffer (DMEM containing 40 mM HEPES, 0.2% BSA, and 4 mM MnCl2) to various concentrations and 100 μL of the Jurkat cells (2×10^6 cell/mL) were added to the plates coated with VCAM-1/Fc (5×10^5 cells/well), followed by incubation at 30° C. for 15 minutes to 60 minutes. After the cells were bound to each well, unbound cells were removed by washing with PBS. To the plates, buffer C (PBS containing 1.5% Triton X-100) was added at 50 μL/well to lyse the bound Jurkat cells. To 30 μL of the cell lysate, 30 μL of Substrate Buffer (Promega, CytoTox 96 Non-Radioactive Cytotoxicity Assay) was added, and the reaction was allowed to proceed at room temperature in a dark place for 30 minutes. To each well, 30 μL of Stop Solution (Promega, CytoTox 96 Non-Radioactive Cytotoxicity Assay) was added, and the absorbance at 490 nm was measured by using a plate reader. Here, by the obtained absorbance, the activity of the lactate dehydrogenase (LDH) dissolved into the supernatant of each well was detected. In other words, the absorbance was proportional to the number of the Jurkat cells bound to VCAM-1 and remaining on the plate. The test was duplicated. The binding ratios of the cells at various concentrations were determined, with the absorbance of a well containing no test substances taken as 100%. Then, the concentration IC50, at which 50% binding inhibition was achieved, was calculated. […] Note that, among the compounds synthesized in the corresponding Examples, the compounds in the free form (Compounds A-1 to A-39) were used as the test compounds. Hereinafter, the same shall apply.

Chain of α4β1 integrin (P13612 34-1032): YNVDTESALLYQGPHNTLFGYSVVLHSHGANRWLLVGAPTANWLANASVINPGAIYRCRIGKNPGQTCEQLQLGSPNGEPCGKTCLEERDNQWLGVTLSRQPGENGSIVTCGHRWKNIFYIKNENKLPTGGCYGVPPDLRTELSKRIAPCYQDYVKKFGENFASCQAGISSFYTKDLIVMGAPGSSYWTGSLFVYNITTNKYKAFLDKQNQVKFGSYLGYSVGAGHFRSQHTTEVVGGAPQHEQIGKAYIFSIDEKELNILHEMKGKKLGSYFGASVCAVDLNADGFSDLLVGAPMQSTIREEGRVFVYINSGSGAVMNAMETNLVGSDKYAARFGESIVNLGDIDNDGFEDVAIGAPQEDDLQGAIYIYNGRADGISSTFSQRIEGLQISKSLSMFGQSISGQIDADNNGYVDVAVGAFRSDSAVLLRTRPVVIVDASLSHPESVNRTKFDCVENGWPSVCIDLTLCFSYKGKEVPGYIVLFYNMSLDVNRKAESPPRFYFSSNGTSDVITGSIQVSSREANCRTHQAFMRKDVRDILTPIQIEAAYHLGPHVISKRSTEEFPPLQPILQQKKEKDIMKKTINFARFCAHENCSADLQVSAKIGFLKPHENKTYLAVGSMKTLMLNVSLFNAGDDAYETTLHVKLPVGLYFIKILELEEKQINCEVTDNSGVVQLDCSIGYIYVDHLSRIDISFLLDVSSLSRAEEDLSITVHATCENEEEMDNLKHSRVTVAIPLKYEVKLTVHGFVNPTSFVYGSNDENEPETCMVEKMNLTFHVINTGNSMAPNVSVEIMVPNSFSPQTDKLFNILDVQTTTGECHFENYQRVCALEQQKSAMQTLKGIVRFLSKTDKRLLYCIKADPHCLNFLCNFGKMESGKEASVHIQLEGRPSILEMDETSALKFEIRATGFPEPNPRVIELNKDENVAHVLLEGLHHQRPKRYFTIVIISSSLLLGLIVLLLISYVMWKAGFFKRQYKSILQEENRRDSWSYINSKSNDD
Chain of α4β1 integrin (P05556 21-798): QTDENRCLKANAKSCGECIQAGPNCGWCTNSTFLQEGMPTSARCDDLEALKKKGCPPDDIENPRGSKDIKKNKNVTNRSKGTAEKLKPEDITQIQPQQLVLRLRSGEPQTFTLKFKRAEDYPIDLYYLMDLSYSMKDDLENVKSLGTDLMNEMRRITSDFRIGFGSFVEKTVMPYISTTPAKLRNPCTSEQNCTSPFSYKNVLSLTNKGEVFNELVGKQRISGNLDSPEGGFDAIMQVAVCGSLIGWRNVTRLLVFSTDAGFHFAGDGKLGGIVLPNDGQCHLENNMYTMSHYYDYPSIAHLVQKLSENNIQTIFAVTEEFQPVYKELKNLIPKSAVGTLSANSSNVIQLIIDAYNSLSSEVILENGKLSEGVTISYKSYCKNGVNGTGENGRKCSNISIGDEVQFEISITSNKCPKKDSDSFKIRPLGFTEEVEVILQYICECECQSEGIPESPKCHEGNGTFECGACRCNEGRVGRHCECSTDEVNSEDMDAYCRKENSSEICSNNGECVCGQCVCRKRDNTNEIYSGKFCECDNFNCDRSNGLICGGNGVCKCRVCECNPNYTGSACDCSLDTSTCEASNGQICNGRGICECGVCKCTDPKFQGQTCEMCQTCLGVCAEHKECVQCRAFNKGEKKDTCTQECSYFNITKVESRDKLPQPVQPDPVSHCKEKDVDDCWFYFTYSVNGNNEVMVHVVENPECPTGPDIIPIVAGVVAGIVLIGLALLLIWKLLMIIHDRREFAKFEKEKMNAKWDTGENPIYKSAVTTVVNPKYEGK
T1 sequence (P13612 34-1032): as the sequence (P13612 34-1032) above
T1 sequence (P26010 20-798): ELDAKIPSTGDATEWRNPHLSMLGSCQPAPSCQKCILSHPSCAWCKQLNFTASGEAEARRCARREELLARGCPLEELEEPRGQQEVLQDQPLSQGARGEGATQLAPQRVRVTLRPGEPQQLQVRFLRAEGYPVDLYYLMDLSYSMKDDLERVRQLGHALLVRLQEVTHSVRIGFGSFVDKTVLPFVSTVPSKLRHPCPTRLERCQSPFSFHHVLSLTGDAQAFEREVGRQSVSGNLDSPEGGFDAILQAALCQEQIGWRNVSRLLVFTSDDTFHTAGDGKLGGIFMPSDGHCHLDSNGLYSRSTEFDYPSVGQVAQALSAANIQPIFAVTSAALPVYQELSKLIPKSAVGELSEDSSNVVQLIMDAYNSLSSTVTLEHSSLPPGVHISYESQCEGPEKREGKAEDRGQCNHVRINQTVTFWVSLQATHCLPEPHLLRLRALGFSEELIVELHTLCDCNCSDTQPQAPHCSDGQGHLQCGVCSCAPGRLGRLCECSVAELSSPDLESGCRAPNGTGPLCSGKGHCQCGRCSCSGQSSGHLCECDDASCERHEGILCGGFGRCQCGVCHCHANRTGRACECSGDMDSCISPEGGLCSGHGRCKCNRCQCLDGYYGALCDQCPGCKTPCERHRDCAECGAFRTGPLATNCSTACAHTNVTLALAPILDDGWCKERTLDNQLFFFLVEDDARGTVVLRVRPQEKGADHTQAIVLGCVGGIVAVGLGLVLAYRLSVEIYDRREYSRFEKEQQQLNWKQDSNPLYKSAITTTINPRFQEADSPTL

| SMILES | Selectivity [1] | IC50 [1] [nM] | IC50 [2] [nM] | IC50 [3] [nM] |
| --- | --- | --- | --- | --- |
| Cc1cc(-c2ccc(S(=O)(=O)Nc3cc(F)c(C(=O)N[C@@H](Cc4ccc(-n5c(=O)c6ccncc6n(C)c5=O)cc4)C(=O)O)c(F)c3)cc2)ccn1 [Example 49, N-[2,6-Difluoro-4-({[4-(2-methylpyridin-4-yl)phenyl]sulfonyl}amino)benzoyl]-4-(1-methyl-2,4-dioxo-1,4-dihydropyrido[3,4-d]pyrimidin-3(2H)-yl)-L-phenylalanine] | 770 | 0.43 | 25 | 330 |
| Cc1ccc(-c2ccc(S(=O)(=O)Nc3cc(F)c(C(=O)N[C@@H](Cc4ccc(-n5c(=O)c6ccncc6n(C)c5=O)cc4)C(=O)O)c(F)c3)cc2)cn1 [Example 50, N-[2,6-Difluoro-4-({[4-(6-methylpyridin-3-yl)phenyl]sulfonyl}amino)benzoyl]-4-(1-methyl-2,4-dioxo-1,4-dihydropyrido[3,4-d]pyrimidin-3(2H)-yl)-L-phenylalanine] | 560 | 0.32 | 19 | 180 |
| COc1ccc2c(c1)c(=O)n(-c1ccc(C[C@H](NC(=O)c3c(F)cc(NS(=O)(=O)c4ccc(-n5ccnn5)cc4)cc3F)C(=O)O)cc1)c(=O)n2C [Example 51, N-[2,6-Difluoro-4-({[4-(1H-1,2,3-triazol-1-yl)phenyl]sulfonyl}amino)benzoyl]-4-(6-methoxy-1-methyl-2,4-dioxo-1,4-dihydroquinazolin-3(2H)-yl)-L-phenylalanine] | 220 | 6.9 | 21 | 1500 |
| CNCc1ccc(S(=O)(=O)Nc2ccc(C(=O)N[C@@H](Cc3ccc(-n4c(=O)c5ccncc5n(C)c4=O)cc3)C(=O)O)c(F)c2)cc1 [Example 52, N-{2-Fluoro-4-[({4-[(methylamino)methyl]phenyl}sulfonyl)amino]benzoyl}-4-(1-methyl-2,4-dioxo-1,4-dihydropyrido[3,4-d]pyrimidin-3(2H)-yl)-L-phenylalanine] | 210 | 2.6 | 13 | 550 |
| Cn1c(=O)n(-c2ccc(C[C@H](NC(=O)c3c(F)cc(NS(=O)(=O)c4ccc(-c5ccsc5)cc4)cc3F)C(=O)O)cc2)c(=O)c2ccncc21 [Example 53, N-[2,6-Difluoro-4-({[4-(3-thienyl)phenyl]sulfonyl}amino)benzoyl]-4-(1-methyl-2,4-dioxo-1,4-dihydropyrido[3,4-d]pyrimidin-3(2H)-yl)-L-phenylalanine] | 260 | 2.8 | 24 | 740 |
| Cn1c(=O)n(-c2ccc(C[C@H](NC(=O)c3c(F)cc(NS(=O)(=O)c4ccc(-c5cncnc5)cn4)cc3F)C(=O)O)cc2)c(=O)c2ccncc21 [Example 54, N-(2,6-Difluoro-4-{[(5-pyrimidin-5-yl-pyridin-2-yl)sulfonyl]amino}benzoyl)-4-(1-methyl-2,4-dioxo-1,4-dihydropyrido[3,4-d]pyrimidin-3(2H)-yl)-L-phenylalanine] | 230 | 0.077 | 1.6 | 18 |
| Cn1c(=O)n(-c2ccc(C[C@H](NC(=O)c3c(F)cc(NS(=O)(=O)c4ccc(-n5cncn5)nc4)cc3F)C(=O)O)cc2)c(=O)c2ccncc21 [Example 55, N-[2,6-Difluoro-4-({[6-(1H-1,2,4-triazol-1-yl)pyridin-3-yl]sulfonyl}amino)benzoyl]-4-(1-methyl-2,4-dioxo-1,4-dihydropyrido[3,4-d]pyrimidin-3(2H)-yl)-L-phenylalanine] | 170 | 0.27 | 4.6 | 45 |
| Cn1ccc(=O)n(-c2ccc(C[C@H](NC(=O)c3c(F)cc(NS(=O)(=O)c4ccc(-n5cncn5)cn4)cc3F)C(=O)O)cc2)c1=O [Example 56, N-[2,6-Difluoro-4-({[5-(1H-1,2,4-triazol-1-yl)pyridin-2-yl]sulfonyl}amino)benzoyl]-4-(3-methyl-2,6-dioxo-3,6-dihydropyrimidin-1(2H)-yl)-L-phenylalanine] | 80 | 2 | 5.4 | 160 |
| Cn1c(=O)n(-c2ccc(C[C@H](NC(=O)c3c(F)cc(NS(=O)(=O)c4ccc(-n5cncn5)cn4)cc3F)C(=O)O)cc2)c(=O)c2ccncc21 [Example 57, N-[2,6-Difluoro-4-({[5-(1H-1,2,4-triazol-1-yl)pyridin-2-yl]sulfonyl}amino)benzoyl]-4-(1-methyl-2,4-dioxo-1,4-dihydropyrido[3,4-d]pyrimidin-3(2H)-yl)-L-phenylalanine] | 220 | 0.06 | 1.5 | 13 |
| Cn1ccc(=O)n(-c2ccc(C[C@H](NC(=O)c3c(F)cc(NS(=O)(=O)c4ccc(-n5ccnn5)cc4)cc3F)C(=O)O)cc2)c1=O [Example 58, N-[2,6-Difluoro-4-({[4-(1H-1,2,3-triazol-1-yl)phenyl]sulfonyl}amino)benzoyl]-4-(3-methyl-2,6-dioxo-3,6-dihydropyrimidin-1(2H)-yl)-L-phenylalanine] | 410 | 1 | 4.8 | 410 |
